The first assay deals with NCI-H1666. Description: relative viability (nuclei count vs DMSO), 5 days (fraction); higher = more cells survive. The note with it: first compound 0.6325 µM. In short, it runs like this: (§1)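 Dosing by pin tool came one day after lung cancer cell lines were seeded in 1536-well plates, using either one drug or a fixed anchor-drug dose plus five library-drug doses (not always all listed) in √10 steps. After 5 days, nuclei were counted on 4× images. Relative viability is treated-well nuclei count divided by vehicle-well nuclei count, and values are medians of duplicate plates.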
`COCC1(CO)C(=O)C2CCN1CC2` (stereo not drawn) [PRIMA-1MET] + Nc1nc2[nH]cc(CCc3ccc(C(=O)N[C@@H](CCC(=O)O)C(=O)O)cc3)c2c(=O)[nH]1 [Pemetrexed] (partner 0.2 µM) yielded a relative viability of 0.824.
The same measure, in the same setting: to `COCC1(CO)C(=O)C2CCN1CC2` (stereo not drawn) [PRIMA-1MET] + Cc1nc(Nc2ncc(C(=O)Nc3c(C)cccc3Cl)s2)cc(N2CCN(CCO)CC2)n1 [Dasatinib] (partner 0.075 µM) belongs 0.79.

The same assay, now with this note: first compound 2 µM.
For the compound `COCC1(CO)C(=O)C2CCN1CC2` (stereo not drawn) [PRIMA-1MET] + CCNC(=O)c1noc(-c2cc(C(C)C)c(O)cc2O)c1-c1ccc(CN2CCOCC2)cc1 [Luminespib] (partner 0.01 µM), the relative viability came out at 0.906.
The same measure, in the same setting: to `COCC1(CO)C(=O)C2CCN1CC2` (stereo not drawn) [PRIMA-1MET] + COc1cccc2cc(-c3nc([C@H]4CC[C@H](C(=O)O)CC4)n4ncnc(N)c34)[nH]c12 [OSI-027] (partner 0.5 µM) belongs 0.827; to `COCC1(CO)C(=O)C2CCN1CC2` (stereo not drawn) [PRIMA-1MET] + N=C(N)NC(=N)NCCc1ccccc1 [Phenformin] (partner 250 µM), 0.555; to `COCC1(CO)C(=O)C2CCN1CC2` (stereo not drawn) [PRIMA-1MET] + Nc1nc2[nH]cc(CCc3ccc(C(=O)N[C@@H](CCC(=O)O)C(=O)O)cc3)c2c(=O)[nH]1 [Pemetrexed] (partner 0.2 µM), 0.742.
As to `COCC1(CO)C(=O)C2CCN1CC2` (stereo not drawn) [PRIMA-1MET] + Cc1nc(Nc2ncc(C(=O)Nc3c(C)cccc3Cl)s2)cc(N2CCN(CCO)CC2)n1 [Dasatinib] (partner 0.075 µM), the relative viability was determined as 0.807.

The assay is the same for the next values; noted with them: first compound 6.325 µM.
In the case of `COCC1(CO)C(=O)C2CCN1CC2` (stereo not drawn) [PRIMA-1MET] + CCNC(=O)c1noc(-c2cc(C(C)C)c(O)cc2O)c1-c1ccc(CN2CCOCC2)cc1 [Luminespib] (partner 0.01 µM), the relative viability was 1.03.
Still for that read-out and setting: to `COCC1(CO)C(=O)C2CCN1CC2` (stereo not drawn) [PRIMA-1MET] + COc1cccc2cc(-c3nc([C@H]4CC[C@H](C(=O)O)CC4)n4ncnc(N)c34)[nH]c12 [OSI-027] (partner 0.5 µM) belongs 0.826.
The same measure, in the same setting: to `COCC1(CO)C(=O)C2CCN1CC2` (stereo not drawn) [PRIMA-1MET] + N=C(N)NC(=N)NCCc1ccccc1 [Phenformin] (partner 250 µM) belongs 0.634; to `COCC1(CO)C(=O)C2CCN1CC2` (stereo not drawn) [PRIMA-1MET] + Nc1nc2[nH]cc(CCc3ccc(C(=O)N[C@@H](CCC(=O)O)C(=O)O)cc3)c2c(=O)[nH]1 [Pemetrexed] (partner 0.2 µM), 0.793.
Same read-out and setting: the result for `COCC1(CO)C(=O)C2CCN1CC2` (stereo not drawn) [PRIMA-1MET] + Cc1nc(Nc2ncc(C(=O)Nc3c(C)cccc3Cl)s2)cc(N2CCN(CCO)CC2)n1 [Dasatinib] (partner 0.075 µM) reads 0.846.

The same assay, now with this note: first compound 20 µM.
On to `COCC1(CO)C(=O)C2CCN1CC2` (stereo not drawn) [PRIMA-1MET] + CCNC(=O)c1noc(-c2cc(C(C)C)c(O)cc2O)c1-c1ccc(CN2CCOCC2)cc1 [Luminespib] (partner 0.01 µM), for which the relative viability is 0.85.
`COCC1(CO)C(=O)C2CCN1CC2` (stereo not drawn) [PRIMA-1MET] + COc1cccc2cc(-c3nc([C@H]4CC[C@H](C(=O)O)CC4)n4ncnc(N)c34)[nH]c12 [OSI-027] (partner 0.5 µM) yielded a relative viability of 0.714.
The same measure, in the same setting: the result for `COCC1(CO)C(=O)C2CCN1CC2` (stereo not drawn) [PRIMA-1MET] + N=C(N)NC(=N)NCCc1ccccc1 [Phenformin] (partner 250 µM) reads 0.564; that for `COCC1(CO)C(=O)C2CCN1CC2` (stereo not drawn) [PRIMA-1MET] + Nc1nc2[nH]cc(CCc3ccc(C(=O)N[C@@H](CCC(=O)O)C(=O)O)cc3)c2c(=O)[nH]1 [Pemetrexed] (partner 0.2 µM), 0.814; that for `COCC1(CO)C(=O)C2CCN1CC2` (stereo not drawn) [PRIMA-1MET] + Cc1nc(Nc2ncc(C(=O)Nc3c(C)cccc3Cl)s2)cc(N2CCN(CCO)CC2)n1 [Dasatinib] (partner 0.075 µM), 0.639.

A further assay has as its system NCI-H1975. The description is as above. The note with it: first compound 0.2 µM. The gist of the method: as §1
`COCC1(CO)C(=O)C2CCN1CC2` (stereo not drawn) [PRIMA-1MET] + CCNC(=O)c1noc(-c2cc(C(C)C)c(O)cc2O)c1-c1ccc(CN2CCOCC2)cc1 [Luminespib] (partner 0.01 µM) gave a relative viability of 0.33.
The same measure, in the same setting: the result for `COCC1(CO)C(=O)C2CCN1CC2` (stereo not drawn) [PRIMA-1MET] + COc1cccc2cc(-c3nc([C@H]4CC[C@H](C(=O)O)CC4)n4ncnc(N)c34)[nH]c12 [OSI-027] (partner 0.5 µM) reads 0.879; that for `COCC1(CO)C(=O)C2CCN1CC2` (stereo not drawn) [PRIMA-1MET] + N=C(N)NC(=N)NCCc1ccccc1 [Phenformin] (partner 250 µM), 0.41; that for `COCC1(CO)C(=O)C2CCN1CC2` (stereo not drawn) [PRIMA-1MET] + Nc1nc2[nH]cc(CCc3ccc(C(=O)N[C@@H](CCC(=O)O)C(=O)O)cc3)c2c(=O)[nH]1 [Pemetrexed] (partner 0.2 µM), 0.31.
Still for that read-out and setting: the result for `COCC1(CO)C(=O)C2CCN1CC2` (stereo not drawn) [PRIMA-1MET] + Cc1nc(Nc2ncc(C(=O)Nc3c(C)cccc3Cl)s2)cc(N2CCN(CCO)CC2)n1 [Dasatinib] (partner 0.075 µM) reads 0.359.

Still in this assay, the particulars now being: first compound 0.6325 µM.
On to `COCC1(CO)C(=O)C2CCN1CC2` (stereo not drawn) [PRIMA-1MET] + CCNC(=O)c1noc(-c2cc(C(C)C)c(O)cc2O)c1-c1ccc(CN2CCOCC2)cc1 [Luminespib] (partner 0.01 µM), for which the relative viability turned out to be 0.171.
Still for that read-out and setting: the result for `COCC1(CO)C(=O)C2CCN1CC2` (stereo not drawn) [PRIMA-1MET] + COc1cccc2cc(-c3nc([C@H]4CC[C@H](C(=O)O)CC4)n4ncnc(N)c34)[nH]c12 [OSI-027] (partner 0.5 µM) reads 0.62.
The compound `COCC1(CO)C(=O)C2CCN1CC2` (stereo not drawn) [PRIMA-1MET] + N=C(N)NC(=N)NCCc1ccccc1 [Phenformin] (partner 250 µM) yielded a relative viability of 0.4.
With `COCC1(CO)C(=O)C2CCN1CC2` (stereo not drawn) [PRIMA-1MET] + Nc1nc2[nH]cc(CCc3ccc(C(=O)N[C@@H](CCC(=O)O)C(=O)O)cc3)c2c(=O)[nH]1 [Pemetrexed] (partner 0.2 µM), the relative viability stood at 0.266.
Still for that read-out and setting: the result for `COCC1(CO)C(=O)C2CCN1CC2` (stereo not drawn) [PRIMA-1MET] + Cc1nc(Nc2ncc(C(=O)Nc3c(C)cccc3Cl)s2)cc(N2CCN(CCO)CC2)n1 [Dasatinib] (partner 0.075 µM) reads 0.349.

The assay is the same for the next values; noted with them: first compound 2 µM.
Take `COCC1(CO)C(=O)C2CCN1CC2` (stereo not drawn) [PRIMA-1MET] + CCNC(=O)c1noc(-c2cc(C(C)C)c(O)cc2O)c1-c1ccc(CN2CCOCC2)cc1 [Luminespib] (partner 0.01 µM): the relative viability was 0.21.
The same measure, in the same setting: the result for `COCC1(CO)C(=O)C2CCN1CC2` (stereo not drawn) [PRIMA-1MET] + COc1cccc2cc(-c3nc([C@H]4CC[C@H](C(=O)O)CC4)n4ncnc(N)c34)[nH]c12 [OSI-027] (partner 0.5 µM) reads 0.604; that for `COCC1(CO)C(=O)C2CCN1CC2` (stereo not drawn) [PRIMA-1MET] + N=C(N)NC(=N)NCCc1ccccc1 [Phenformin] (partner 250 µM), 0.381; that for `COCC1(CO)C(=O)C2CCN1CC2` (stereo not drawn) [PRIMA-1MET] + Nc1nc2[nH]cc(CCc3ccc(C(=O)N[C@@H](CCC(=O)O)C(=O)O)cc3)c2c(=O)[nH]1 [Pemetrexed] (partner 0.2 µM), 0.28.
The same measure, in the same setting: to `COCC1(CO)C(=O)C2CCN1CC2` (stereo not drawn) [PRIMA-1MET] + Cc1nc(Nc2ncc(C(=O)Nc3c(C)cccc3Cl)s2)cc(N2CCN(CCO)CC2)n1 [Dasatinib] (partner 0.075 µM) belongs 0.366.

The assay is the same for the next values; noted with them: first compound 6.325 µM.
Compound `COCC1(CO)C(=O)C2CCN1CC2` (stereo not drawn) [PRIMA-1MET] + CCNC(=O)c1noc(-c2cc(C(C)C)c(O)cc2O)c1-c1ccc(CN2CCOCC2)cc1 [Luminespib] (partner 0.01 µM) registered a relative viability of 0.252.
